Measured values: article PMC3387330 (Amino acids, 2012)

Test: Metabolic stability of parent peptide in rat hepatocytes
Settings: male, Sprague-Dawley

| SMILES | half-life at 10 µM |
| --- | --- |
| CSCC[C@H](NC(=O)[C@H](CC(C)C)NC(=O)[C@H](Cc1c[nH]cn1)NC(=O)CNC(=O)[C@@H](NC(=O)[C@H](C)NC(=O)[C@H](Cc1c[nH]c2ccccc12)NC(=O)[C@H](CCC(N)=O)NC(=O)CCCCCNC(=O)C(C)F)C(C)C)C(N)=O (some centres unmarked) [FP-BBN, FP-aca-QWAVGHLM-NH2] | ~25 min |
| CSCC[C@H](NC(=O)[C@H](CC(C)C)NC(=O)[C@H](Cc1c[nH]cn1)NC(=O)CNC(=O)[C@@H](NC(=O)[C@H](C)NC(=O)[C@H](Cc1c[nH]c2ccccc12)NC(=O)[C@H](CCC(N)=O)NC(=O)CCCCCNC(=O)c1ccc(F)cc1)C(C)C)C(N)=O [FB-BBN, FB-aca-QWAVGHLM-NH2] | ~3.8 min |
